Data: US11434242B2, “Dopamine-b-hydroxylase inhibitors” (BIAL-PORTELA & Cª, S.A., priority 2017, dated 2022)

Target: T1, Dopamine beta hydroxylase (Homo sapiens, UniProt P09172)
T1 construct: 125 μl of plasma; tissue Instituto Português do Sangue Transplantação; host or cells: human plasma from healthy donors
T1 sequence (P09172 40-617 limits assumed): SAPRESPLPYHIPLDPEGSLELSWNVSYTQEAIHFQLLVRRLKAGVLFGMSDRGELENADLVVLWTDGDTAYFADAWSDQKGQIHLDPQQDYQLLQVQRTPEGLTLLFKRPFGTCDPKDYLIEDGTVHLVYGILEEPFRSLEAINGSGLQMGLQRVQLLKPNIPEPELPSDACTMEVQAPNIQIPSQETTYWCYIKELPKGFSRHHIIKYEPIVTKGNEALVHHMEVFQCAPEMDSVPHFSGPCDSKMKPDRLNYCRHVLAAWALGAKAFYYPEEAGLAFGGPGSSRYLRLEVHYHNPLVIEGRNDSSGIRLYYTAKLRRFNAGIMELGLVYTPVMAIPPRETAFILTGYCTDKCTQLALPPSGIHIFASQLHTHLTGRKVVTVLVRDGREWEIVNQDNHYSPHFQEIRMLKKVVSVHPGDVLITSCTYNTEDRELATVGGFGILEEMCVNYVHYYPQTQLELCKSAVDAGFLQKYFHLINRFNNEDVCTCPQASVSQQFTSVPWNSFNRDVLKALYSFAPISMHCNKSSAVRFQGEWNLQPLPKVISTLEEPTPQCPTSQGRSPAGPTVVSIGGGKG
Experiment: Dopamine beta hydroxylase activity in human plasma
Assay type: biochemical
Settings: for Plasma (0.01 μM), activity in % of control: inhibitor 0.01 μM; for Plasma (0.1 μM), activity in % of control: inhibitor 0.1 μM
How it was run: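 Healthy-donor human plasma pre-incubated 10 min at 37° C with compound at final 10, 100 or 1000 nM in pH 5.0 acetate buffer with ascorbate, fumarate, pargyline, N-ethylmaleimide, catalase and copper sulfate. Tyramine substrate then added for 45 min; octopamine formed was isolated by SCX cartridge, periodate-converted and read at 330 nm; activity given as % control.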

Plasma (0.01 μM), activity in % of control | Plasma (0.1 μM), activity in % of control | SMILES
36.4 % of control | 6.2 % of control | Cn1cc(CNC(=O)Cc2c3n(c(=S)n2C)C[C@H](c2c(F)ccc(Cl)c2F)C3)cn1 [Example 338, (S)-2-(6-(3-chloro-2,6-difluorophenyl)-2-methyl-3-thioxo-2,5,6,7-tetrahydro-3H-pyrrolo[1,2-c]imidazol-1-yl)-N-((1-methyl-1H-pyrazol-4-yl)methyl)acetamide]
42.3 % of control | 4.3 % of control | Cn1cc(CNC(=O)Cc2c3n(c(=S)n2C)C[C@@]2(c4cc(Cl)ccc4F)C[C@@H]32)cn1 [Example 339, 2-((5aS,6aR)-5a-(5-chloro-2-fluorophenyl)-2-methyl-3-thioxo-2,3,5,5a,6,6a-hexahydrocyclopropa[3,4]pyrrolo[1,2-c]imidazol-1-yl)-N-((1-methyl-1H-pyrazol-4-yl)methyl)acetamide]
87.6 % of control | 27.0 % of control | Cn1c(CC(=O)Nc2nccs2)c2n(c1=S)C[C@@H](c1c(F)c(F)cc(F)c1F)C2 [Example 340, (R)-2-(2-methyl-6-(2,3,5,6-tetrafluorophenyl)-3-thioxo-2,5,6,7-tetrahydro-3H-pyrrolo[1,2-c]imidazol-1-yl)-N-(thiazol-2-yl)acetamide]
91.1 % of control | 33.6 % of control | Cl.Cn1c(CCNC2CCCCC2)c2n(c1=S)C[C@@]1(c3cc(Br)ccc3F)C[C@@H]21 [Example 341, (5aS,6aR)-5a-(5-bromo-2-fluorophenyl)-1-(2-(cyclohexylamino)ethyl)-2-methyl-5,5a,6,6a-tetrahydrocyclopropa[3,4]pyrrolo[1,2-c]imidazole-3(2H)-thione hydrochloride]
94.9 % of control | 59.5 % of control | Cl.Cn1c(CCNCc2ccccn2)c2n(c1=S)C[C@@]1(c3cc(Cl)ccc3F)C[C@@H]21 [Example 343, (5aS,6aR)-5a-(5-chloro-2-fluorophenyl)-2-methyl-1-(2-((pyridin-2-ylmethyl)amino)ethyl)-5,5a,6,6a-tetrahydrocyclopropa[3,4]pyrrolo[1,2-c]imidazole-3(2H)-thione Hydrochloride]
109.6 % of control | 74.9 % of control | Cl.Cn1cc(CNCCc2c3n(c(=S)n2C)C[C@@]2(c4cc(Cl)ccc4F)C[C@@H]32)cn1 [Example 346, (5aS,6aR)-5a-(5-chloro-2-fluorophenyl)-2-methyl-1-(2-(((1-methyl-1H-pyrazol-4-yl)methyl)amino)ethyl)-5,5a,6,6a-tetrahydrocyclopropa[3,4]pyrrolo[1,2-c]imidazole-3(2H)-thione Hydrochloride]
79.0 % of control | 17.7 % of control | Cn1c(CC(=O)Nc2cnoc2)c2n(c1=S)C[C@@H](c1c(F)ccc(F)c1F)C2 [Example 347, (R)—N-(isoxazol-4-yl)-2-(2-methyl-3-thioxo-6-(2,3,6-trifluorophenyl)-2,5,6,7-tetrahydro-3H-pyrrolo[1,2-c]imidazol-1-yl)acetamide]
85.7 % of control | 28.2 % of control | Cn1cc(NC(=O)Cc2c3n(c(=S)n2C)C[C@H](c2c(F)ccc(Cl)c2F)C3)cn1 [Example 350, (S)-2-(6-(3-chloro-2,6-difluorophenyl)-2-methyl-3-thioxo-2,5,6,7-tetrahydro-3H-pyrrolo[1,2-c]imidazol-1-yl)-N-(1-methyl-1H-pyrazol-4-yl)acetamide]
46.2 % of control | 16.5 % of control | Cn1c(CC(=O)Nc2cnsc2)c2n(c1=S)C[C@@H](c1c(F)ccc(F)c1F)C2 [Example 351, (R)—N-(isothiazol-4-yl)-2-(2-methyl-3-thioxo-6-(2,3,6-trifluorophenyl)-2,5,6,7-tetrahydro-3H-pyrrolo[1,2-c]imidazol-1-yl)acetamide]

Further lines, the compound ahead of its results:

SMILES | Plasma (0.01 μM), activity in % of control | Plasma (0.1 μM), activity in % of control
Cn1c(CC(=O)NC[C@H]2CCCO2)c2n(c1=S)C[C@H](c1c(F)ccc(Cl)c1F)C2 [Example 337, 2-((S)-6-(3-chloro-2,6-difluorophenyl)-2-methyl-3-thioxo-2,5,6,7-tetrahydro-3H-pyrrolo[1,2-c]imidazol-1-yl)-N—(((R)-tetrahydrofuran-2-yl)methyl)acetamide] | 48.2 % of control | 9.4 % of control
Cn1c(CC(=O)N[C@@H]2CCNC2=O)c2n(c1=S)C[C@H](c1c(F)ccc(Br)c1F)C2 [Example 342, 2-((S)-6-(3-bromo-2,6-difluorophenyl)-2-methyl-3-thioxo-2,5,6,7-tetrahydro-3H-pyrrolo[1,2-c]imidazol-1-yl)-N—((R)-2-oxopyrrolidin-3-yl)acetamide] | 66.6 % of control | 16.5 % of control
Cn1c(CC(=O)N2CCC[C@@H]2C(F)(F)F)c2n(c1=S)C[C@@H](c1c(F)ccc(F)c1F)C2 [Example 344, 2-((R)-2-methyl-3-thioxo-6-(2,3,6-trifluorophenyl)-2,5,6,7-tetrahydro-3H-pyrrolo[1,2-c]imidazol-1-yl)-1-((R)-2-(trifluoromethyl)pyrrolidin-1-yl)ethan-1-one] | 88.2 % of control | 73.7 % of control
Cn1c(CC(=O)NC2CCCC2C#N)c2n(c1=S)C[C@@H](c1c(F)ccc(F)c1F)C2 (stereo partly drawn) [Example 345, N-(2-cyanocyclopentyl)-2-((R)-2-methyl-3-thioxo-6-(2,3,6-trifluorophenyl)-2,5,6,7-tetrahydro-3H-pyrrolo[1,2-c]imidazol-1-yl)acetamide] | 77.2 % of control | 40.3 % of control
Cn1c(CC(=O)N2CC[C@H](C#N)C2)c2n(c1=S)C[C@@H](c1c(F)ccc(F)c1F)C2 [Example 348, (S)-1-(2-((R)-2-methyl-3-thioxo-6-(2,3,6-trifluorophenyl)-2,5,6,7-tetrahydro-3H-pyrrolo[1,2-c]imidazol-1-yl)acetyl)pyrrolidine-3-carbonitrile] | 92.4 % of control | 44.8 % of control
Cc1nnc(NC(=O)Cc2c3n(c(=S)n2C)C[C@H](c2c(F)ccc(Cl)c2F)C3)o1 [Example 349, (S)-2-(6-(3-chloro-2,6-difluorophenyl)-2-methyl-3-thioxo-2,5,6,7-tetrahydro-3H-pyrrolo[1,2-c]imidazol-1-yl)-N-(5-methyl-1,3,4-oxadiazol-2-yl)acetamide] | 72.3 % of control | 12.5 % of control
Cn1c(CC(=O)NCC2CCOCC2)c2n(c1=S)C[C@H](c1c(F)ccc(Cl)c1F)C2 [Example 352, (S)-2-(6-(3-chloro-2,6-difluorophenyl)-2-methyl-3-thioxo-2,5,6,7-tetrahydro-3H-pyrrolo[1,2-c]imidazol-1-yl)-N-((tetrahydro-2H-pyran-4-yl)methyl)acetamide] | 40.8 % of control | 10.9 % of control
